In the NIST ThermoML archive (doi:10.1021/je400884v) one finds mass density data, which are given here for three compounds.

Numbers after ± are expanded uncertainties.

The nature of this data set: an = ratio of the nth substance listed. Particulars: 101 kPa, Liquid, Pycnometric method.

One may read the mass density as mass per unit of volume. On to `CC(O)C(C)O` (centres undefined) [2,3-butanediol] + C[N+](C)(C)CCO.[Cl-], for which the mass density came to 1035 ± 1.7 kg/m3 (293.15 K, a2 = 0.25); 1046.8 ± 1.7 kg/m3 (293.15 K, a2 = 0.33); 1030.9 ± 1.7 kg/m3 (303.15 K, a2 = 0.25); 1039 ± 1.7 kg/m3 (303.15 K, a2 = 0.33); 1026.5 ± 1.7 kg/m3 (313.15 K, a2 = 0.25); 1035.7 ± 1.7 kg/m3 (313.15 K, a2 = 0.33). In addition, the mass density runs as follows: (323.15 K, a2 = 0.25) 1019.7 ± 1.7 kg/m3; (323.15 K, a2 = 0.33) 1030 ± 1.7 kg/m3.
Take `OCCCCO` [1,4-butanediol] + C[N+](C)(C)CCO.[Cl-]: the mass density reads like this: (293.15 K, a2 = 0.25) 1044.5 ± 1.7 kg/m3; (293.15 K, a2 = 0.33) 1052.4 ± 1.7 kg/m3; (303.15 K, a2 = 0.25) 1041.1 ± 1.7 kg/m3; (303.15 K, a2 = 0.33) 1049 ± 1.7 kg/m3; (313.15 K, a2 = 0.25) 1035.4 ± 1.7 kg/m3; (313.15 K, a2 = 0.33) 1043.2 ± 1.7 kg/m3. For the same compound, the mass density (323.15 K, a2 = 0.25) worked out at 1030.6 ± 1.7 kg/m3 and the mass density (323.15 K, a2 = 0.33) turned out to be 1038.4 ± 1.7 kg/m3.
As to `C[N+](C)(C)CCO.[Cl-]` [choline chloride] + CC(O)CO, the mass density stood at 1066.3 ± 1.7 kg/m3 (293.15 K, a1 = 0.25); 1066.6 ± 1.7 kg/m3 (293.15 K, a1 = 0.33); 1060.2 ± 1.7 kg/m3 (303.15 K, a1 = 0.25); 1059.9 ± 1.7 kg/m3 (303.15 K, a1 = 0.33); 1054.1 ± 1.7 kg/m3 (313.15 K, a1 = 0.25); 1053.3 ± 1.7 kg/m3 (313.15 K, a1 = 0.33). In addition, the mass density runs as follows: (323.15 K, a1 = 0.25) 1048 ± 1.7 kg/m3; (323.15 K, a1 = 0.33) 1046.7 ± 1.7 kg/m3.
